Assays:
[1] = target: T1, HCV polymerase (NS5B570n-Con1) (Hepatitis C virus genotype 1b, UniProt Q9WMX2); experiment: HCV NS5B RNA Polymerase Activity; format: biochemical, HCV Con1 strain
T1 construct: contains a 21 amino acid deletion at the C-terminus relative to the full-length HCV polymerase; 6-histidine (N); made in house; host or cells: E. coli BL21(DE) pLysS, plasmid pET 17b
Protocol: The enzymatic activity of HCV polymerase (NS5B570n-Con1) was measured as the incorporation of radiolabeled nucleotide monophosphates into acid insoluble RNA products. Unincorporated radiolabeled substrate was removed by filtration and scintillant was added to the washed and dried filter plate containing radiolabeled RNA product. The amount of RNA product generated by NS5B570-Con1 at the end of the reaction was directly proportional to the amount of light emitted by the scintillant.
The N-terminal 6-histidine tagged HCV polymerase, derived from HCV Con1 strain, genotype 1b (NS5B570n-Con1) contains a 21 amino acid deletion at the C-terminus relative to the full-length HCV polymerase and was purified from E. coli strain BL21(DE) pLysS. The construct, containing the coding sequence of HCV NS5B Con1 (GenBank accession number AJ242654) was inserted into the plasmid construct pET 17b, downstream of a T7 promoter expression cassette and transformed into E. coli. A single colony was grown overnight as a starter culture and later used inoculate 10 L of LB media supplemented with 100 μg/mL ampicillin at 37° C. Protein expression was induced by the addition of 0.25 mM isopropyl-β-D-thiogalactopyranoside (IPTG) when optical density at […] of the culture was between 0.6 and 0.8 and cells were harvested after 16 to 18 h at 30° C. NS5B570n-Con1 was purified to homogeneity using a three-step protocol including subsequent column chromatography on Ni-NTA, SP-Sepharose HP and Superdex 75 resins.
Each 50 μL enzymatic reaction contained 20 nM RNA template derived from the complementary sequence of the Internal Ribosome Entry Site (cIRES), 20 nM NS5B570n-Con1 enzyme, 0.5 μCi of tritiated UTP (Perkin Elmer catalog no. TRK-412; specific activity: 30 to 60 Ci/mmol; stock solution concentration from 7.5×10^−5 M to 20.6×10^−6 M), 1 μM each ATP, CTP, and GTP, 40 mM Tris-HCl pH 8.0, 40 mM NaCl, 4 mM DTT (dithiothreitol), 4 mM MgCl2, and 5 μl of compound serial diluted in DMSO. Reaction mixtures were assembled in 96-well filter plates (cat #MADVN0B, Millipore Co.) and incubated for 2 h at 30° C. Reactions were stopped by addition of 10% final (v/v) trichloroacetic acid and incubated for 40 min at 4° C. Reactions were filtered, washed with 8 reaction volumes of 10% (v/v) trichloroacetic acetic acid, 4 reaction volumes of 70% (v/v) ethanol, air dried, and 25 μl of scintillant (Microscint 20, Perkin-Elmer) was added to each reaction well.
The amount of light emitted from the scintillant was converted to counts per minute (CPM) on a Topcount® plate reader (Perkin-Elmer, Energy Range: Low, Efficiency Mode Normal, Count Time: 1 min, Background Subtract: none, Cross talk reduction: Off).
Data was analyzed in Excel® (Microsoft) and ActivityBase® (Idbs®). The reaction in the absence of enzyme was used to determine the background signal, which was subtracted from the enzymatic reactions. Positive control reactions were performed in the absence of compound, from which the background corrected activity was set as 100% polymerase activity. All data was expressed as a percentage of the positive control. The compound concentration at which the enzyme-catalyzed rate of RNA synthesis was reduced by 50% (IC50) was calculated by fitting equation (i) to the data where“Y”
[formula] corresponds to the relative enzyme activity (in %), “% Min” is the residual relative activity at saturating compound concentration, “% Max” is the relative maximum enzymatic activity, “X” corresponds to the compound concentration, and “S” is the Hill coefficient (or slope).

[2] = in vitro; conditions: human
[3] = system: HCV replicon cells (2209-23), genotype 1b replicon; experiment: HCV Replicon Assay (Renilla luciferase reporter); format: cell-based, HCV genotype 1b; conditions: Hepatitis C virus, 72 h; cell line 2209-23, luciferase activity after three days
[4] = system: HCV; conditions: cited from earlier work

Compound	IC50 [1]	melting point	CC50 at 3 days [2]	IC50 [3]	serum amino transferase levels reduced to normal, share of patients ([4]; monotherapy)	effect on serum HCV-RNA ([4]; sole treatment / monotherapy)
COc1c(C(C)(C)C)cc(-c2ccc[nH]c2=O)c2ncc(N3CC[C@H](CNS(C)(=O)=O)C3)cc12 [Compound I-18, N-{(S)-1-[6-tert-Butyl-5-methoxy-8-(2-oxo-1,2-dihydro-pyridin-3-yl)-quinolin-3-yl]-pyrrolidin-3-ylmethyl}-methanesulfonamide]	0.2 nM	275 to 280 °C	30300 nM	5.2 nM		
NC(=O)c1ncn([C@@H]2O[C@H](CO)[C@@H](O)[C@H]2O)n1 [ribavirin, 1-((2R,3R,4S,5R)-3,4-Dihydroxy-5-hydroxymethyl-tetrahydro-furan-2-yl)-1H-[1,2,4]triazole-3-carboxylic acid amide]					40%	does not lower serum levels of HCV-RNA

Reference: patent US8487103B2 (Roche Palo Alto LLC, priority 2009, dated 2013)
